Assay results reported in US20170258924A1, “Ester of a Phospholipid With Conjugated Linoleic Acid for the Treatment of Psychiatric Disorders With Neuroinflammatory and Neurodegenerative Basis” (UNIVERSITA' DEGLI STUDI DI CAGLIARI, priority 2014, published 2017).

Legend:
[1] = test system: rat brain slices; assay: ex vivo incubation of rat brain slices, levels of PEA and OEA; format: cell-based; conditions: rat brain slices incubated ex vivo for 15, 30 or 60 min; FIG. 1
Description: The values, mean and DS, are expressed as molar % of the total fatty acids. Different letters indicate significant differences (p<0.05); the One-way ANOVA statistical analysis was used, with Tukey test for post-hoc analysis. Similar results were obtained by using pure (99%) c9,t11 isomer.
(§1) The methods employed for the analysis of the levels of conjugated linoleic acid, PEA and OEA in vivo and in vitro are described in detail in (Melis et al. 2001) and in (Piscitelli et al. 2011), respectively.
On the contrary, WY14643 (WY), a synthetic agonist of PPAR alpha used as a comparison since it is an inductor of PPAR alpha, increases the levels of PEA and OEA by about 3-4 times (FIG. 1B).

[2] = test system: TNF alpha in astrocytes; assay: TNF alpha in cultures of astrocytes after induced neuroinflammation with LPS; format: cell-based; conditions: treatment then LPS, oleic acid as control, p<0.05, FIG. 3
Description: (§2) Since astrocytes are involved in neuroinflammation, the action of CLA (80% c9,t11 isomer) was also verified in cultures of astrocytes after having induced neuroinflammation with LPS. Oleic acid was used as a control.

[3] = test system: TNF alpha in microglia; assay: TNF alpha in microglia in vitro; format: cell-based
Description: The PEA and OEA increase, since it sustains PPAR alpha activation, is crucial for the physiologic response to neuroinflammatory events, in addition to preserving the homeostasis of the dopaminergic system. In fact, CLA can reduce in vitro the levels of TNF alpha in both astrocytes and microglia.

[4] = test system: frontal cortex of mice; assay: in vivo administration to mice, levels of OEA in the frontal cortex; conditions: acute administration 12 hours prior to sacrifice, FIG. 2
Description: The values, mean and DS, are expressed as pmoles/g tissue. Different letters indicate significant differences (p<0.05); the One-way ANOVA statistical analysis was used, with Tukey test for post-hoc analysis.
as §1, §2

Compound	increase of the levels of OEA [1]	increase of the levels of PEA [1]	TNF alpha in cultured astrocytes [2]	TNF alpha in cultured astrocytes ([2]; listed as CLA)	levels of TNF alpha in microglia [3]	levels of OEA in the frontal cortex [4]
Cc1cccc(Nc2cc(Cl)nc(SCC(=O)O)n2)c1C [WY14643, reference compound]	3-4 times	3-4 times	–	–	–	–
conjugated linoleic acid [CLA (80% c9,t11 isomer)]	about 5 times	about 5 times	significant decrease	reduce	reduce	significantly increases
